Measurements from ChEMBL document CHEMBL3044875, “Synthesis and antimicrobial activity of some bisoctahydroxanthene-1,8-dione derivatives” (2011).
The source made the active and inactive calls. No cut-off for these calls is given here.

Tests used:
Rhodotorula mucilaginosa [1] = assay: Antifungal activity against Rhodotorula mucilaginosa at 100 U/disk after 48 hr by disk diffusion method; format: functional, organism-based
Escherichia coli [2] = assay: Antibacterial activity against Escherichia coli ATCC 25922 at 20 ug/disk after 24 hr by disk-diffusion method; format: functional
Aspergillus niger [3] = assay: Antifungal activity against Aspergillus niger ATCC 10949 at 20 ug/disk after 72 hr by disk diffusion method; format: functional, organism-based
Pseudomonas aeruginosa [4] = assay: Antibacterial activity against Pseudomonas aeruginosa ATCC 27853 at 40 ug/disk after 24 hr by disk-diffusion method; format: functional, organism-based
Proteus vulgaris [5] = assay: Antibacterial activity against Proteus vulgaris NRRL-B-123 at 140 ug/disk after 24 hr by disk diffusion method; format: functional, organism-based
Candida albicans [6] = assay: Antifungal activity against Candida albicans ATCC 10231 at 20 ug/disk after 48 hr by disk-diffusion method; format: functional; details: for zone of inhibition at 20 µg/disc: ATCC 10231, 48 h, read-out: DIZ
Pseudomonas aeruginosa [7] = assay: Antibacterial activity against Pseudomonas aeruginosa ATCC 27853 at 20 ug/disk after 24 hr by disk-diffusion method; format: functional, organism-based
Rhodotorula mucilaginosa [8] = assay: Antifungal activity against Rhodotorula mucilaginosa at 140 ug/disk after 48 hr by disk diffusion method; format: functional; details: for zone of inhibition at 140 µg/disc: read-out: DIZ
[9] = tested on: Staphylococcus epidermidis; assay: Antibacterial activity against Staphylococcus epidermidis ATCC 12228 at 140 ug/disk after 24 hr by disk diffusion method; format: functional
Proteus vulgaris [10] = assay: Antibacterial activity against Proteus vulgaris NRRL-B-123 at 20 ug/disk after 24 hr by disk diffusion method; format: functional, organism-based
Nocardia [11] = assay: Antibacterial activity against Nocardia canis at 140 ug/disk after 24 hr by disk diffusion method; format: functional
Proteus vulgaris [12] = assay: Antibacterial activity against Proteus vulgaris NRRL-B-123 at 40 ug/disk after 24 hr by disk diffusion method; format: functional, organism-based
Escherichia coli [13] = assay: Antibacterial activity against Escherichia coli ATCC 25922 at 140 ug/disk after 24 hr by disk-diffusion method; format: functional; details: for zone of inhibition at 140 µg/disc: ATCC 25922, 24 h, read-out: DIZ
Rhodotorula mucilaginosa [14] = assay: Antifungal activity against Rhodotorula mucilaginosa at 40 ug/disk after 48 hr by disk diffusion method; format: functional
Aspergillus niger [15] = assay: Antifungal activity against Aspergillus niger ATCC 10949 at 40 ug/disk after 72 hr by disk diffusion method; format: functional, organism-based
Nocardia [16] = assay: Antibacterial activity against Nocardia canis at 40 ug/disk after 24 hr by disk diffusion method; format: functional
Rhodotorula mucilaginosa [17] = assay: Antifungal activity against Rhodotorula mucilaginosa at 20 ug/disk after 48 hr by disk diffusion method; format: functional
[18] = tested on: Staphylococcus epidermidis; assay: Antibacterial activity against Staphylococcus epidermidis ATCC 12228 at 20 ug/disk after 24 hr by disk diffusion method; format: functional, organism-based
Bacillus cereus [19] = assay: Antibacterial activity against Bacillus cereus NRRL 3711 at 40 ug/disk after 24 hr by disk diffusion method; format: functional; details: for zone of inhibition at 40 µg/disc: NRRL 3711, 24 h, read-out: DIZ
[20] = tested on: Staphylococcus epidermidis; assay: Antibacterial activity against Staphylococcus epidermidis ATCC 12228 at 40 ug/disk after 24 hr by disk diffusion method; format: functional
Bacillus cereus [21] = assay: Antibacterial activity against Bacillus cereus NRRL 3711 at 20 ug/disk after 24 hr by disk diffusion method; format: functional; details: for zone of inhibition at 20 µg/disc: NRRL 3711, 24 h, read-out: DIZ
Staphylococcus aureus [22] = assay: Antibacterial activity against Staphylococcus aureus ATCC 25923 at 140 ug/disc after 24 hr by disk diffusion method; format: functional
Staphylococcus aureus [23] = assay: Antibacterial activity against Staphylococcus aureus ATCC 25923 at 40 ug/disc after 24 hr by disk diffusion method; format: functional
Bacillus cereus [24] = assay: Antibacterial activity against Bacillus cereus NRRL 3711 at 140 ug/disk after 24 hr by disk diffusion method; format: functional; details: for zone of inhibition at 140 µg/disc: NRRL 3711, 24 h, read-out: DIZ
Pseudomonas aeruginosa [25] = assay: Antibacterial activity against Pseudomonas aeruginosa ATCC 27853 at 140 ug/disk after 24 hr by disk-diffusion method; format: functional, organism-based
Candida albicans [26] = assay: Antifungal activity against Candida albicans ATCC 10231 at 40 ug/disk after 48 hr by disk-diffusion method; format: functional; details: ATCC 10231, 48 h, read-out: DIZ
Escherichia coli [27] = assay: Antibacterial activity against Escherichia coli ATCC 25922 at 40 ug/disk after 24 hr by disk-diffusion method; format: functional; details: for zone of inhibition at 40 µg/disc: ATCC 25922, 24 h, read-out: DIZ
Candida albicans [28] = assay: Antifungal activity against Candida albicans ATCC 10231 at 140 ug/disk after 48 hr by disk-diffusion method; format: functional; details: ATCC 10231, 48 h, read-out: DIZ
Aspergillus niger [29] = assay: Antifungal activity against Aspergillus niger ATCC 10949 at 140 ug/disk after 72 hr by disk diffusion method; format: functional; details: for zone of inhibition at 140 µg/disc: ATCC 10949, 72 h, read-out: DIZ
Nocardia [30] = assay: Antibacterial activity against Nocardia canis at 20 ug/disk after 24 hr by disk diffusion method; format: functional, organism-based
Staphylococcus aureus [31] = assay: Antibacterial activity against Staphylococcus aureus ATCC 25923 at 20 ug/disc after 24 hr by disk diffusion method; format: functional
[32] = ATCC 12228, 24 h, read-out: DIZ
[33] = ATCC 25923, 24 h, read-out: DIZ

Row | Compound | diameter of the inhibition zone (DIZ) (Aspergillus niger [3]) | diameter of the inhibition zone (DIZ) (Pseudomonas aeruginosa [4]) | diameter of the inhibition zone (DIZ) (Proteus vulgaris [5]) | zone of inhibition at 20 µg/disc (Candida albicans [6]) [mm] | diameter of the inhibition zone (DIZ) (Pseudomonas aeruginosa [7]) | zone of inhibition at 140 µg/disc (Rhodotorula mucilaginosa [8]) [mm] | diameter of the inhibition zone (DIZ) (Proteus vulgaris [10]) | diameter of the inhibition zone (DIZ) (Proteus vulgaris [12]) | diameter of the inhibition zone (DIZ) (Aspergillus niger [15]) | diameter of the inhibition zone (DIZ) [18] | zone of inhibition at 140 µg/disc (Bacillus cereus [24]) [mm] | diameter of the inhibition zone (DIZ) (Pseudomonas aeruginosa [25]) | zone of inhibition at 40 µg/disc (Candida albicans [26]) [mm] | zone of inhibition at 140 µg/disc (Candida albicans [28]) [mm] | diameter of the inhibition zone (DIZ) (Nocardia [30]) | diameter of the inhibition zone (DIZ) (Escherichia coli [2]) | diameter of the inhibition zone (DIZ) [9] | diameter of the inhibition zone (DIZ) (Nocardia [11]) | diameter of the inhibition zone (DIZ) (Rhodotorula mucilaginosa [14]) | diameter of the inhibition zone (DIZ) (Nocardia [16]) | also measured
1 | NYSTATIN |  |  |  |  |  |  |  |  |  |  |  |  |  |  |  |  |  |  |  |  | inhibition zone (IZ) (Rhodotorula mucilaginosa [1]): 21 mm
2 | CC1(C)CCC2=C(C1=O)C(c1cccc(C3C4=C(CCC(C)(C)C4=O)OC4=C3C(=O)C(C)(C)CC4)c1)C1=C(CCC(C)(C)C1=O)O2 | inactive | inactive | inactive | 8 | inactive | 12 | inactive | inactive | inactive | inactive | 9 | inactive | 9 | 9 | inactive |  |  |  |  |  | zone of inhibition at 20 µg/disc (Escherichia coli [2]; ATCC 25922, 24 h, read-out: DIZ): 7 mm; zone of inhibition at 140 µg/disc [9, 32]: 10 mm; zone of inhibition at 140 µg/disc (Nocardia [11]; read-out: DIZ): 8 mm; zone of inhibition at 140 µg/disc (Escherichia coli [13]): 9 mm; zone of inhibition at 40 µg/disc (Rhodotorula mucilaginosa [14]; read-out: DIZ): 9 mm; zone of inhibition at 40 µg/disc (Nocardia [16]; read-out: DIZ): 7 mm; zone of inhibition at 20 µg/disc (Rhodotorula mucilaginosa [17]; read-out: DIZ): 8 mm; zone of inhibition at 40 µg/disc (Bacillus cereus [19]): 9 mm; zone of inhibition at 40 µg/disc [20, 32]: 8 mm; zone of inhibition at 20 µg/disc (Bacillus cereus [21]): 8 mm; zone of inhibition at 140 µg/disc (Staphylococcus aureus [22]; [33]): 15 mm; zone of inhibition at 40 µg/disc (Staphylococcus aureus [23]; [33]): 10 mm; zone of inhibition at 40 µg/disc (Escherichia coli [27]): 8 mm; zone of inhibition at 140 µg/disc (Aspergillus niger [29]): 7 mm; zone of inhibition at 20 µg/disc (Staphylococcus aureus [31]; [33]): 8 mm
3 | O=C1CC(c2ccccc2)CC2=C1C(c1ccc(C3C4=C(CC(c5ccccc5)CC4=O)OC4=C3C(=O)CC(c3ccccc3)C4)cc1)C1=C(CC(c3ccccc3)CC1=O)O2 (stereo unspecified) | inactive | inactive | inactive | 7 | inactive | 7 | inactive | inactive | inactive | inactive | 10 | inactive | 8 | 8 | inactive | inactive | inactive | inactive | inactive | inactive | diameter of the inhibition zone (DIZ) (Escherichia coli [13]): inactive; diameter of the inhibition zone (DIZ) (Rhodotorula mucilaginosa [17]): inactive; zone of inhibition at 40 µg/disc (Bacillus cereus [19]): 10 mm; diameter of the inhibition zone (DIZ) [20]: inactive; zone of inhibition at 20 µg/disc (Bacillus cereus [21]): 8 mm; diameter of the inhibition zone (DIZ) (Staphylococcus aureus [22]): inactive; diameter of the inhibition zone (DIZ) (Staphylococcus aureus [23]): inactive; diameter of the inhibition zone (DIZ) (Escherichia coli [27]): inactive; diameter of the inhibition zone (DIZ) (Aspergillus niger [29]): inactive; diameter of the inhibition zone (DIZ) (Staphylococcus aureus [31]): inactive
4 | O=C1CC(c2ccccc2)CC2=C1C(c1cccc(C3C4=C(CC(c5ccccc5)CC4=O)OC4=C3C(=O)CC(c3ccccc3)C4)c1)C1=C(CC(c3ccccc3)CC1=O)O2 (stereo unspecified) | inactive | inactive | inactive | 7 | inactive | 7 | inactive | inactive | inactive | inactive | 12 | inactive | 8 | 8 | inactive | inactive | inactive | inactive | inactive | inactive | diameter of the inhibition zone (DIZ) (Escherichia coli [13]): inactive; diameter of the inhibition zone (DIZ) (Rhodotorula mucilaginosa [17]): inactive; zone of inhibition at 40 µg/disc (Bacillus cereus [19]): 11 mm; diameter of the inhibition zone (DIZ) [20]: inactive; zone of inhibition at 20 µg/disc (Bacillus cereus [21]): 8 mm; diameter of the inhibition zone (DIZ) (Staphylococcus aureus [22]): inactive; diameter of the inhibition zone (DIZ) (Staphylococcus aureus [23]): inactive; diameter of the inhibition zone (DIZ) (Escherichia coli [27]): inactive; diameter of the inhibition zone (DIZ) (Aspergillus niger [29]): inactive; diameter of the inhibition zone (DIZ) (Staphylococcus aureus [31]): inactive
5 | COc1ccc(C2CC(=O)C3=C(C2)OC2=C(C(=O)CC(c4ccc(OC)c(OC)c4)C2)C3c2cccc(C3C4=C(CC(c5ccc(OC)c(OC)c5)CC4=O)OC4=C3C(=O)CC(c3ccc(OC)c(OC)c3)C4)c2)cc1OC (stereo unspecified) | inactive | inactive | inactive | 7 | inactive |  | inactive | inactive | inactive | inactive |  | inactive | 7 | 7 | inactive | inactive | inactive | inactive | inactive | inactive | diameter of the inhibition zone (DIZ) (Rhodotorula mucilaginosa [8]): inactive; diameter of the inhibition zone (DIZ) (Escherichia coli [13]): inactive; diameter of the inhibition zone (DIZ) (Rhodotorula mucilaginosa [17]): inactive; diameter of the inhibition zone (DIZ) (Bacillus cereus [19]): inactive; diameter of the inhibition zone (DIZ) [20]: inactive; diameter of the inhibition zone (DIZ) (Bacillus cereus [21]): inactive; diameter of the inhibition zone (DIZ) (Staphylococcus aureus [22]): inactive; diameter of the inhibition zone (DIZ) (Staphylococcus aureus [23]): inactive; diameter of the inhibition zone (DIZ) (Bacillus cereus [24]): inactive; diameter of the inhibition zone (DIZ) (Escherichia coli [27]): inactive; zone of inhibition at 140 µg/disc (Aspergillus niger [29]): 7 mm; diameter of the inhibition zone (DIZ) (Staphylococcus aureus [31]): inactive
6 | CC1(C)CC(=O)C2=C(C1)OC1=C(C(=O)CC(C)(C)C1)C2c1cccc(C2C3=C(CC(C)(C)CC3=O)OC3=C2C(=O)CC(C)(C)C3)c1 | inactive | inactive | inactive |  | inactive | 7 | inactive | inactive | inactive | inactive | 7 | inactive | 7 | 7 | inactive | inactive | inactive | inactive | inactive | inactive | diameter of the inhibition zone (DIZ) (Candida albicans [6]): inactive; zone of inhibition at 140 µg/disc (Escherichia coli [13]): 8 mm; diameter of the inhibition zone (DIZ) (Rhodotorula mucilaginosa [17]): inactive; diameter of the inhibition zone (DIZ) (Bacillus cereus [19]): inactive; diameter of the inhibition zone (DIZ) [20]: inactive; diameter of the inhibition zone (DIZ) (Bacillus cereus [21]): inactive; diameter of the inhibition zone (DIZ) (Staphylococcus aureus [22]): inactive; diameter of the inhibition zone (DIZ) (Staphylococcus aureus [23]): inactive; zone of inhibition at 40 µg/disc (Escherichia coli [27]): 7 mm; diameter of the inhibition zone (DIZ) (Aspergillus niger [29]): inactive; diameter of the inhibition zone (DIZ) (Staphylococcus aureus [31]): inactive
